Measurements as given in publication PMC12198407, “Preclinical and first-in-human of purinostat mesylate, a novel selective HDAC I/IIb inhibitor, in relapsed/refractory multiple myeloma and lymphoma” (Signal Transduction and Targeted Therapy, 2025).
Like-named read-outs stand apart in the source and are kept apart here.

How the values were obtained:
[1] = Chronic toxicity test, intravenous; type: in vivo, Beagle dogs
Method: In this study, the low, medium, and high dose groups were set at 0.3, 1, and 3 mg/kg, respectively. The excipient was set at a high dose of 45 mg/kg. In the low dose group, occasional vomiting was observed; in the medium dose group, symptoms included vomiting, loose stools, and dark red stools; in the high dose group, symptoms included vomiting and dark red stools. Four dogs (4/10, 2 females and 2 males) died between days 13 and 26 of the experiment. […] The primary toxic target organs or systems included the immune system (spleen, thymus, lymph nodes), digestive system (esophagus, liver, pancreas, intestine), kidneys, heart, lungs, trachea, testes, bone marrow, and injection site. There was a dose-dependent relationship, and recovery was observed during the recovery period. The highest no serious toxicity dose (HNSTD) was determined to be 1 mg/kg.

HDAC2 = HDAC2 (Homo sapiens, UniProt Q92769); assay: HDAC enzyme activity in vitro; type: biochemical
HDAC10 = HDAC10 (Homo sapiens, UniProt Q969S8); assay: HDAC enzyme activity in vitro; type: biochemical
CHL cells = assay: In vitro chromosomal aberration test; type: cell-based; conditions: 30–1000 µg/mL 4 h ±S9; 3.75–30 µg/mL 24 h
Method: This experiment employed two methods: one without the S9 metabolic activation system and one with the S9 metabolic activation system. The method without the S9 metabolic activation system utilized two exposure times of 4 hours and 24 hours, while the method with the S9 metabolic activation system used a 4-hour exposure time. The test was conducted using a 2% dosing volume ratio. Under the 4-hour exposure conditions, the final concentrations of Purinostat Mesylate were set at 30, 100, 300, and 1000 µg/mL; under the 24-hour exposure conditions, the final concentrations were set at 3.75, 7.5, 15, and 30 µg/mL. Additionally, a solvent control group (DMSO) and a positive control group (administering the appropriate positive agent) were included. After the culture period for each concentration group, cells were collected and prepared for microscopy. After Giemsa staining, 1000 cells were observed under a microscope to record the number of cells in the metaphase stage and calculate the mitotic index inhibition rate for each group. For chromosome aberration assessment, 200 metaphase cells were observed, and the chromosome aberration rate was calculated for each group.

[2] = test system: human multiple myeloma RPMI-8226; type: in vivo
bone destruction = assay: Micro-CT of femur, 5TMM model; type: in vivo, C57BL/KawRij mice; conditions: 10 mg/kg for 4 weeks
Method: The cMYC-KRAS12V-induced plasmacytoma mouse model in BALB/c (GemPharmatech Co., Ltd., Nanjing, China) was established as previously described.[33] On day 28 or 35 post bone marrow transplantation, recipients received various treatments. The 5TMM mouse model was established as previously described.[55] The 5TGM1-luc cells were intravenously injected into 6-week-old C57BL/KawRij mice (Harlan Co. Netherlands) with 2 × 10^6 cells per mouse. After three weeks, mice were treated with vehicle or PM 10 mg/kg. Serum Ca^2+ levels were monitored weekly for three weeks after the start of administration. Kaplan-Meier survival curves were generated for each treatment group. Additionally, the 5TMM mouse model studying PM’s effects on immune response and bone destruction involved randomizing mice into vehicle and PM (10 mg/kg) groups one week after inoculation. T cell subsets were analyzed by flow cytometry 24 h after a single dose and 1 month after vehicle or PM treatment. The mice were sacrificed after 1 month of treatment, and the bone destruction was detected by Micro-CT.

[3] = Metabolic stability in liver microsomes; type: in vitro ADME; conditions: for half-life at 1 µM: NADPH, 37°C; for CLint scaled at 1 µM: read-out: liver intrinsic clearance (CLint)
Method: The metabolic stability of Purinostat Mesylate was evaluated in CD-1 mice, SD rats, Beagle dogs, crab-eating monkeys, and human liver microsomes. Under conditions of 37°C, 1 µM of Purinostat Mesylate was incubated with liver microsomes from the five species mentioned above, supplemented with a NADPH regeneration system, for varying durations up to 60 minutes. The concentration of Purinostat Mesylate in the resulting samples was analyzed using LC/MS/MS.

[4] = test system: c-MYC/KRAS12V transformed BaF3 cells; assay: Cell viability CCK8; type: cell-based
Method: PM, panobinostat, Pom and DXM were dissolved in DMSO and stored at -20°C freezer. Cells were seeded at a density of 1.0-3.0 × 10^4 cells/well/100 μL in 96-well plates. After overnight incubation, cells were treated with the drug-containing culture medium for 24, 48, or 72 hours, and cell viability was measured using CCK8 (Oriscience, Chengdu, China) at the indicated time points with Biotek Cytation 3 at a wavelength of 450 nm. The IC50 values were calculated using GraphPad Prism 9.4.1, and Calcusyn 2.0 software was employed to calculate the CI values.
Mice were weighed every two days. All data are represented as mean ± SEM.

[5] = Metabolites in dog plasma; type: in vivo, Beagle dogs; conditions: male and female dogs
Source text: Four metabolites of Purinostat Mesylate were detected in plasma samples from both male and female dogs, namely M4 (MW = 636.66, unknown product), M8 (MW = 474.52, reduction product), M13 (MW = 505.54, methylation product), and M16 (MW = 475.50, hydrolysis product). The primary metabolic pathways involved hydrolysis, methylation, and reduction, with no significant gender differences observed. The parent compound, Purinostat Mesylate, accounted for more than 35% of the UV absorption peak area in the plasma samples from both male and female dogs, indicating it is one of the major components. Purinostat Mesylate is primarily metabolized in the plasma of male and female dogs through hydrolysis, methylation, and reduction pathways. A possible metabolic pathway structure diagram is shown below: […]

Chain of HDAC2 (Q92769 whole entry): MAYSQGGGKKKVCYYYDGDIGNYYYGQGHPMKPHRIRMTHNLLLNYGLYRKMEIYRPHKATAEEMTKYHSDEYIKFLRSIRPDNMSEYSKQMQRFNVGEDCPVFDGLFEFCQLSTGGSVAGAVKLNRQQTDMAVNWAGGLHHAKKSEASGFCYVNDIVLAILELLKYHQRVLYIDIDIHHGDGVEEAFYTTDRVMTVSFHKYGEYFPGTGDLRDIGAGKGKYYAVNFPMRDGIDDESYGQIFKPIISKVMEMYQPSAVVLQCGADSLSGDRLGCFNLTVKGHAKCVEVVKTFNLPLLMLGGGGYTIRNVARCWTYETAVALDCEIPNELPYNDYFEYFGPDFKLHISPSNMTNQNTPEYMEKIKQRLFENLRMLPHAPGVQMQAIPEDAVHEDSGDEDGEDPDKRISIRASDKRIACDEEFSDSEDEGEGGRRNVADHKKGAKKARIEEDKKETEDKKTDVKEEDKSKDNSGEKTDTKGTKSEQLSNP
Chain of HDAC10 (Q969S8 whole entry): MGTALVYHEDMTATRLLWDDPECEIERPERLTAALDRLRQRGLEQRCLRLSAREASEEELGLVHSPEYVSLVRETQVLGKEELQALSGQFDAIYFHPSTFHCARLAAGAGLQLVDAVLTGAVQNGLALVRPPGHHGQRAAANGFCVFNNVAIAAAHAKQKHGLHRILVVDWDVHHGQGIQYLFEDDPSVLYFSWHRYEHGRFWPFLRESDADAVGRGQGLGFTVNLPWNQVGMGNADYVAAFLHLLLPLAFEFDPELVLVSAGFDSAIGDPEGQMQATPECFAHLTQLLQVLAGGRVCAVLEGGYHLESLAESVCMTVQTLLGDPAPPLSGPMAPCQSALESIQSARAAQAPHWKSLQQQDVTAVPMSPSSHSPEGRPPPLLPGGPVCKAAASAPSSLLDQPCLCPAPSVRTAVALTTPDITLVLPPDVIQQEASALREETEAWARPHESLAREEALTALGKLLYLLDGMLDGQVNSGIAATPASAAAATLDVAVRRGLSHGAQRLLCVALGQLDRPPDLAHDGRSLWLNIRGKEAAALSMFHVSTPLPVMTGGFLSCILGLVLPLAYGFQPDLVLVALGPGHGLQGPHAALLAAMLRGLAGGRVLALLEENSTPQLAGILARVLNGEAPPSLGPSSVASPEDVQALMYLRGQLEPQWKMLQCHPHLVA

## CN(Cc1nc2c(N3CCOCC3)nc(-c3ccc(N)cc3)nc2n1C)c1ncc(C(=O)NO)cn1.CS(=O)(=O)O [PM, 2-(((2-(4-Aminophenyl)-9-methyl-6-(4-morpholinyl)-9H-purine-8-yl)methyl)methylamino)-N-hydroxy-5-pyrimidine-carboxamide Mesylate]
[1]; both sexes, beagle, dog, in vivo, intravenous
  NOAEL: < 0.3 mg/kg
[1]; both, beagle, dog, in vivo, intravenous
  highest no serious toxicity dose (HNSTD): 1 mg/kg
[1]; high dose 3 mg/kg, days 13 to 26
  dogs that died: 4/10
[1]; high dose group, male dogs
  prolongation of QTc: 9.6%
HDAC2
  IC50: 1.4 nM
HDAC10
  IC50: 1.1 nM
CHL cells
  chromosomal aberration test result: negative
[2]; 1.25 mg/kg
  T/C: 13.9%
  tumor inhibition rate: 81.61%
[2]; 2.5 mg/kg
  T/C: 6.6%
  tumor inhibition rate: 92.33%
[2]; 5 mg/kg
  T/C: 2.7%
  tumor inhibition rate: 97.77%
[2]; 10 mg/kg
  T/C: 2.2%
  tumor inhibition rate: 97.77%
[2]; satellite groups, PM 5 mg/kg alone or combined, control regimens
  median survival time: 67.5 days
Bone destruction
  bone structure of femur (Micro-CT): effectively prevented bone destruction and trabecular changes on the femoral surface
[3]; Beagle, dog
  half-life at 1 µM: 1.63 h
  CLint scaled at 1 µM: 20.4 mL/min/kg
[3]; CD-1, mouse
  half-life at 1 µM: > 3.1 h
  CLint scaled at 1 µM: < 29.7 mL/min/kg
[3]; SD, rat
  half-life at 1 µM: > 3.1 h
  CLint scaled at 1 µM: < 13.5 mL/min/kg
[3]; human
  half-life at 1 µM: > 3.1 h
  CLint scaled at 1 µM: < 6.8 mL/min/kg
[3]; monkey
  half-life at 1 µM: 0.0517 h
  CLint scaled at 1 µM: 598 mL/min/kg
[4]
  superior antiproliferation activity compared to panobinostat: ~4 fold
[5]
  share of UV absorption peak area in plasma samples: more than 35%
